Tested on: 3T3 L1 fibroblasts
Assay: Glucose transport activity assay (14C-2-deoxy-D-glucose uptake)
Assay type: cell-based
Conditions: Mus musculus, 3T3-L1, read-out: Concentration (μM) to reach >150% activity of vehicle control
Method: Glucose Transport Activity Assay.
Stimulation of the insulin receptor leads to the transport of glucose from the blood into cells, thus modulating blood glucose levels. 3T3 L1 fibroblasts (ATCC) were grown in Dulbecco's modified Eagle's medium (DMEM) with 10% fetal bovine serum (FBS). The cells were plated at a density of 3×10^4 cells/well in 24-well plates. Two days after confluence was reached, the cells were treated for 3 days with 0.5 mM isobutylmethylxanthine (IBMX), 1 μM dexamethasone, and 1.7 μM insulin. The cells were then transferred to DMEM with 10% FBS and supplemented with 1.7μM insulin for 2 more days. The cells were maintained in DMEM with 10% FBS for an additional 4 days. Finally the cells were serum-starved overnight in 0.1% bovine serum albumin (BSA) in DMEM.
The following day, the medium was replaced with 150 mM NaCl, 1.7 mM KCl, 0.9 mM CaCl2, K2HPO4 (pH 7.4) to which were added either the experimental compounds or their vehicle (DMSO). Insulin or its vehicle (0.01% BSA) was diluted in the assay buffer (containing test compound or vehicle, respectively) to final concentration of […]. After incubation for 30 min at 37° C., 5 μCi/ml ^14C-2-deoxy-D-glucose was added, and the incubation was continued for additional 30 min at 37° C. The cells were then washed 3 times with ice-cold PBS/20 mM glucose and lysed in 250 μl of lysis buffer (50 mM HEPES pH 7.6, 1% Triton X-100) for 30 min at room temperature. Radioactivity in the lysate was quantified by scintillation counting.
Once ^14C-2-deoxy-D-glucose is transported into the cell, it is not released. Glucose transport is, therefore, proportional to the amount of radioactivity in the lysate. The concentration of compound necessary to produce an increase in glucose transport to greater than 150% of the vehicle control (generally representing the sum of the standard deviation of the vehicle control plus the largest standard deviation of a test sample) was recorded as the EC (effective concentration). Shown in FIG. 3 is glucose uptake by cells at various concentrations when treated with Compound 13 and Compound 15.

Row | SMILES | EC (150% of vehicle control) [µM]
1 | CCOP(=O)(O)c1cccc(NS(=O)(=O)c2ccc3ccc(NC(=O)Nc4ccc5ccc(S(=O)(=O)Nc6cccc(P(=O)(O)OCC)c6)cc5c4)cc3c2)c1 [Compound 71, N-[7-({[3-(ethoxy(hydroxyphosphoryl))phenyl]amino}sulfonyl)(2-naphthyl)]{[7-({[3-(ethoxy(hydroxyphosphoryl))phenyl]amino}sulfonyl)(2-naphthyl)]amino}carboxamide] | 3.2
2 | O=C(Nc1ccc2ccc(S(=O)(=O)Nc3cccc([N+](=O)[O-])c3)cc2c1)Nc1ccc2ccc(S(=O)(=O)Nc3cccc([N+](=O)[O-])c3)cc2c1 [Compound 84, N-(7-{[(3-nitrophenyl)amino]sulfonyl}(2-naphthyl))[(7-{[(3-nitrophenyl)amino]sulfonyl}(2-naphthyl))amino]carboxamide] | 3.2

Same assay, conditions: Mus musculus; EC (effective concentration) for increase in glucose transport; 14C-2-deoxy-D-glucose, 3T3 L1 cells; read-out: Concentration (μM) to reach >150% activity of vehicle control

Row | SMILES | EC (150% of vehicle control) [µM]
3 | O=C(Nc1ccc2c(O)cc(S(=O)(=O)Nc3cccc(C(=O)O)c3Cl)cc2c1)Nc1ccc2c(O)cc(S(=O)(=O)Nc3cccc(C(=O)O)c3Cl)cc2c1 [Compound 59, 3-{[(7-{[N-(7-{[(3-carboxy-2-chlorophenyl)amino]sulfonyl}-5-hydroxy(2-naphthyl))carbamoyl]amino}-4-hydroxy(2-naphthyl))sulfonyl]amino}-2-chlorobenzoic acid] | 32
4 | O=C(Nc1ccc2c(O)cc(S(=O)(=O)Nc3cc(C(=O)O)ccc3Cl)cc2c1)Nc1ccc2c(O)cc(S(=O)(=O)Nc3cc(C(=O)O)ccc3Cl)cc2c1 [Compound 60, 3-{[(7-{[N-(7-{[(3-carboxy-6-chlorophenyl)amino]sulfonyl}-5-hydroxy(2-naphthyl))carbamoyl]amino}-4-hydroxy(2-naphthyl))sulfonyl]amino}-4-chlorobenzoic acid] | > 32
5 | COc1ccc(NS(=O)(=O)c2ccc3ccc(NC(=O)Nc4ccc5ccc(S(=O)(=O)Nc6ccc(OC)c(C(=O)O)c6)cc5c4)cc3c2)cc1C(=O)O [Compound 62, 5-{[(7-{[N-(7-{[(3-carboxy-4-methoxyphenyl)amino]sulfonyl}(2-naphthyl))carbamoyl]amino}(2-naphthyl))sulfonyl]amino}-2-methoxybenzoic acid] | 10
6 | O=C(Nc1ccc2ccc(S(=O)(=O)Nc3cc(C(=O)O)ccc3O)cc2c1)Nc1ccc2ccc(S(=O)(=O)Nc3cc(C(=O)O)ccc3O)cc2c1 [Compound 64, 3-{[(7-{[N-(7-{[(3-carboxy-6-hydroxyphenyl)amino]sulfonyl}(2-naphthyl))carbamoyl]amino}(2-naphthyl))sulfonyl]amino}-4-hydroxybenzoic acid] | 3.2
7 | COC(=O)c1ccc(OC)c(NS(=O)(=O)c2ccc3ccc(NC(=O)Nc4ccc5ccc(S(=O)(=O)Nc6cc(C(=O)OC)ccc6OC)cc5c4)cc3c2)c1 [Compound 65, methyl 4-methoxy-3-({[7-({[7-({[2-methoxy-5-(methoxycarbonyl)phenyl]amino}sulfonyl)(2-naphthyl)]amino}carbonylamino)(2-naphthyl)]sulfonyl}amino)benzoate] | > 32
8 | COc1ccc(C(=O)O)cc1NS(=O)(=O)c1ccc2ccc(NC(=O)Nc3ccc4ccc(S(=O)(=O)Nc5cc(C(=O)O)ccc5OC)cc4c3)cc2c1 [Compound 66, 3-{[(7-{[(7-{[(3-carboxy-6-methoxyphenyl)amino]sulfonyl}(2-naphthyl))amino]carbonylamino}(2-naphthyl))sulfonyl]amino}-4-methoxybenzoic acid] | 3.2
9 | O=C(Nc1ccc2ccc(S(=O)(=O)Nc3cccc(-c4nnn[nH]4)c3)cc2c1)Nc1ccc2ccc(S(=O)(=O)Nc3cccc(-c4nnn[nH]4)c3)cc2c1 [Compound 67, N-(7-{[(3-(1H-1,2,3,4-tetraazol-5-yl)phenyl)amino]sulfonyl}(2-naphthyl))[(7-{[(3-(1H-1,2,3,4-tetraazol-5-yl)phenyl)amino]sulfonyl}(2-naphthyl))amino]carboxamide] | 3.2
10 | O=C(Nc1ccc2c(O)cc(S(=O)(=O)Nc3cccc(-c4nnn[nH]4)c3)cc2c1)Nc1ccc2c(O)cc(S(=O)(=O)Nc3cccc(-c4nnn[nH]4)c3)cc2c1 [Compound 68, N-(5-hydroxy-7-{[(3-(1H-1,2,3,4-tetraazol-5-yl)phenyl)amino]sulfonyl}(2-naphthyl))[(5-hydroxy-7-{[(3-(1H-1,2,3,4-tetraazol-5-yl)phenyl)amino]sulfonyl}(2-naphthyl))amino]carboxamide] | 3.2
11 | O=C(Nc1ccc2c(O)cc(S(=O)(=O)Nc3ccc(-c4nnn[nH]4)cc3)cc2c1)Nc1ccc2c(O)cc(S(=O)(=O)Nc3ccc(-c4nnn[nH]4)cc3)cc2c1 [Compound 69, N-(5-hydroxy-7-{[(4-(1H-1,2,3,4-tetraazol-5-yl)phenyl)amino]sulfonyl}(2-naphthyl))[(5-hydroxy-7-{[(4-(1H-1,2,3,4-tetraazol-5-yl)phenyl)amino]sulfonyl}(2-naphthyl))amino]carboxamide] | > 32
12 | COC(=O)[C@H](Cc1ccc(O)cc1)NS(=O)(=O)c1ccc2ccc(NC(=O)Nc3ccc4ccc(S(=O)(=O)O)cc4c3)cc2c1 [Compound 72, 7-({[7-({[(1S)-2-(4-hydroxyphenyl)-1-(methoxycarbonyl)ethyl]amino}sulfonyl)-2-naphthyl]amino}carbonylamino)naphthalene-2-sulfonic acid] | 3.2
13 | O=C(Nc1ccc2ccc(S(=O)(=O)O)cc2c1)Nc1ccc2ccc(S(=O)(=O)N[C@@H](Cc3ccc(O)cc3)C(=O)O)cc2c1 [Compound 73, (2S)-3-(4-hydroxyphenyl)-2-{[(7-{[N-(7-sulfo(2-naphthyl))carbamoyl]amino}(2-naphthyl))sulfonyl]amino}propanoic acid] | 10
14 | COC(=O)[C@H](Cc1ccc(O)cc1)NS(=O)(=O)c1ccc2ccc(NC(=O)Nc3ccc4ccc(S(=O)(=O)N[C@@H](Cc5ccc(O)cc5)C(=O)OC)cc4c3)cc2c1 [Compound 74, methyl (2S)-2-({[7-({N-[7-({[(1S)-2-(4-hydroxyphenyl)-1-(methoxycarbonyl)ethyl]amino}sulfonyl)(2-naphthyl)]carbamoyl}amino)(2-naphthyl)]sulfonyl}amino)-3-(4-hydroxyphenyl)propanoate] | 3.2
15 | O=C(Nc1ccc2ccc(S(=O)(=O)N[C@@H](Cc3ccc(O)cc3)C(=O)O)cc2c1)Nc1ccc2ccc(S(=O)(=O)N[C@@H](Cc3ccc(O)cc3)C(=O)O)cc2c1 [Compound 75, (2S)-2-({[7-({N-[7-({[(1S)-1-carboxy-2-(4-hydroxyphenyl)ethyl]amino}sulfonyl)(2-naphthyl)]carbamoyl}amino)(2-naphthyl)]sulfonyl}amino)-3-(4-hydroxyphenyl)propanoic acid] | 3.2
16 | O=C(Nc1ccc2ccc(S(=O)(=O)O)cc2c1)Nc1ccc2ccc(S(=O)(=O)Nc3ncccn3)cc2c1 [Compound 78, 7-[({7-[(pyrimidin-2-ylamino)sulfonyl]-2-naphthyl}amino)carbonylamino]naphthalene-2-sulfonic acid] | 10
17 | O=C(Nc1ccc2ccc(S(=O)(=O)Nc3ncccn3)cc2c1)Nc1ccc2ccc(S(=O)(=O)Nc3ncccn3)cc2c1 [Compound 79, N-{7-[(pyrimidin-2-ylamino)sulfonyl](2-naphthyl)}({7-[(pyrimidin-2-ylamino)sulfonyl](2-naphthyl)}amino)carboxamide] | 10
18 | O=C(Nc1ccc2ccc(S(=O)(=O)Nc3cnccn3)cc2c1)Nc1ccc2ccc(S(=O)(=O)Nc3cnccn3)cc2c1 [Compound 80, N-{7-[(pyrazin-2-ylamino)sulfonyl](2-naphthyl)}({7-[(pyrazin-2-ylamino)sulfonyl](2-naphthyl)}amino)carboxamide] | 3.2
19 | O=C(Nc1ccc2ccc(S(=O)(=O)Nc3cccc(O)c3)cc2c1)Nc1ccc2ccc(S(=O)(=O)Nc3cccc(O)c3)cc2c1 [Compound 81, N-(7-{[(3-hydroxyphenyl)amino]sulfonyl}(2-naphthyl))[(7-{[(3-hydroxyphenyl)amino]sulfonyl}(2-naphthyl))amino]carboxamide] | 3.2
20 | O=C(Nc1ccc2c(O)cc(S(=O)(=O)Nc3cccc(CO)c3)cc2c1)Nc1ccc2c(O)cc(S(=O)(=O)Nc3cccc(CO)c3)cc2c1 [Compound 82, N-[5-hydroxy-7-({[3-(hydroxymethyl)phenyl]amino}sulfonyl)(2-naphthyl)]{[5-hydroxy-7-({[3-(hydroxymethyl)phenyl]amino}sulfonyl)(2-naphthyl)]amino}carboxamide] | 3.2
21 | N#Cc1cccc(NS(=O)(=O)c2ccc3ccc(NC(=O)Nc4ccc5ccc(S(=O)(=O)Nc6cccc(C#N)c6)cc5c4)cc3c2)c1 [Compound 83, N-(7-{[(3-cyanophenyl)amino]sulfonyl}(2-naphthyl))[(7-{[(3-cyanophenyl)amino]sulfonyl}(2-naphthyl))amino]carboxamide] | 3.2

Reference: US7071231B2, “Naphthalene ureas as glucose uptake enhancers” (Telik, Inc., priority 1999, dated 2006)
